PMC12752627, “Discovery of a Potent and Selective TEAD Degrader with Durable Degradation Activity” (Advanced Science, 2025)

Test system: MSTO-211H xenograft
Assay: MSTO-211H xenograft efficacy study
Assay type: in vivo, BALB/c nude mice
Settings: for Tumor growth inhibition (TGI) rate: MSTO-211H xenograft
Method: Animal experiments were conducted by Medsyin (Shanghai) Co., Ltd. The experimental protocol was approved by the IACUC of the company (No.: PZWH‐2025031003) and strictly adhered to the guidelines of the AAALAC. The specific procedures are as follows: 5 × 10^6 MSTO‐211H cells or ES2 cells were suspended in 100 µL of a mixture of PBS and Matrigel and inoculated subcutaneously into the right axilla of 6‐week‐old BALB/c nude mice. Drug administration was initiated on day 7 after cell inoculation (when the average tumor volume was ≈150 mm^3). The experiment was divided into four groups with 6 mice in each group. The specific grouping and administration methods are as follows: control group, KY‐001 group (10 mg kg^−1, p.o.), KG‐FP‐003 (10 mg kg^−1 or 30 mg kg^−1, i.p.). The administration routes included intraperitoneal injection and intragastric administration, once a day for 21 consecutive days. During the experiment, the body weight and tumor volume of the mice were measured twice a week. At the end of the experiment, the mice were sacrificed and tumor tissues were collected.

## CNC(=O)c1cc2c(c(F)c1-c1c(Cl)c(F)cc3c1C[C@@](CN[C@H]1CC[C@H](C(=O)N4CCC(CC5CCN(C(=O)COc6ccc(N7CCC(=O)NC7=O)c(C)c6)CC5)CC4)CC1)(c1ccccc1)O3)[C@@H](O)[C@@H](C)C2 [KG-FP-003]
10 mg/kg i.p. q.d. 21 days
  Tumor growth inhibition (TGI) rate: 118%
30 mg/kg i.p. q.d. 21 days
  Tumor growth inhibition (TGI) rate: 129%
10 or 30 mg/kg i.p., 21 days, MSTO-211H xenograft mice
  Body weight during treatment: stable body weights
